{"source": "patent US20180346731A1", "about": "“Formation of Stable Pyranoanthocyanins, and Uses Thereof as Sources of Natural Color” (Ohio State Innovation Foundation, priority 2017, published 2018)", "key": {"[1]": {"assay": "Colorimetry (CIEL*c*h*, ΔE) of pigment solutions with ascorbic acid", "format": "physicochemical", "procedure": "(§1) The semi-purified chokeberry extract, the isolated cyanidin-3-galactoside, and the purified 5-carboxypyranocyanidin-3-galactoside were diluted in pH 3.0 citrate buffer (0.1 M adjusted with HCl) until an absorbance of 1.0 at their respective λmax was reached. Levels of AA of 250, 500, and 1000 mg/L were added using a concentrated ascorbic acid stock solution, and a control consisting of each pigment with the absence of AA was maintained. The control consisted of the pigment in the buffer in the absence of AA. An additional test was performed with the same model juice using hydrogen peroxide, a known degradation product of AA. To determine if AA bleaching was due to formation of H2O2, direct addition of it was investigated. In place of added AA, a 62.2 μL of a 0.3% peroxide solution was added to match the molar equivalency of the 500 mg/L AA level, which was 2.84 mM.\n(§2) All samples were brought to the same final volume with additional citrate buffer. […] Samples were stored in the dark at 25° C. in an incubator. UV-Vis spectrophotometry, colorimetry, and HPLC analyses were conducted over a 5 day period following the addition of ascorbic acid or hydrogen peroxide. UV-Vis spectral data was collected every hour for the first 8 hours, and then at 12 hr, and daily from that point on for 5 days. […] HPLC analyses were conducted on days 0, 1, 3, and 5. All treatments were run in triplicate.\nUsing UV-Vis spectral data (5 nm steps, 380-700 nm) in combination with software written for color conversion, absorbance data was translated to CIE-L*c*h*. The calculations for CIE-L*c*h* implemented by the software used CIE relative spectral power distribution for a D65 standard illuminants and 10° observer angle function. Color data is reported as L* (lightness), c* (chroma), and h* (hue angle).\nTotal color changes (ΔE) were calculated as the color change from day 0 to 5 for each respective treatment, and presented in Table 4.\nNumbers are means of 3 replications, followed by (standard deviations). ΔE: total color change from day 0 (control) to day 5."}, "[2]": {"assay": "HPLC monitoring of pigment peaks with ascorbic acid", "format": "physicochemical", "procedure": "Prior to experimentation, pigments were evaluated for purity by using an analytical HPLC only different from the previously listed one by the use of different pumps (LC-20AD, Shimadzu, Md., US). Purified pigments were filtered using the Phenex RC 0.45 μm membranes. A binary system with 1 mL/min flow rate was used: solvent A: 4.5% formic acid in HPLC grade water and solvent B: HPLC grade acetonitrile. The gradient began with an isocratic flow of 6% solvent B for 17 minutes (elution of primary anthocyanins), increasing to 15% solvent B by 45 minutes (elution of primary pyranoanthocyanins), and to 40% solvent B by 50 minutes. A 10 μL injection volume was loaded onto a Phenomenex Kinetix 5 μm EVO C18 100 A. 150×4.6 mm column and Phenomenex Ultra UHPLC EVO C18 guard cartridge attached.\nas §1, §2\nPrepared solutions were monitored to determine the formation of potential degradation products or profile changes. Using the analytical HPLC system and conditions described, chromatograms were monitored with the max plot (260-700 nm), 490 nm (near λmax of 5-carboxypyranocyanidin-3-galactoside), and 520 nm (near ma of cyanidin-3-galactoside). A max plot of 470-520 nm was later added to standardize changes in the AUC for all three pigments and their degradation products."}, "[3]": {"details": "1000 mg/L AA, listed as cyanidin-3-galactoside"}}, "data": [{"compound": "OC[C@H]1O[C@@H](Oc2cc3c(O)cc(O)cc3[o+]c2-c2ccc(O)c(O)c2)[C@H](O)[C@@H](O)[C@H]1O", "note": "[Cyanidin-3-galactoside, cyanidin-3-galactoside]", "values": [{"measurement": "Chroma Day 0", "setting": "[1]; 250 mg/L AA", "value": "50.8 (0.2)"}, {"measurement": "Chroma Day 5", "setting": "[1]; 250 mg/L AA", "value": "13.9 (0.7)"}, {"measurement": "Hue Angle Day 0", "setting": "[1]; 250 mg/L AA", "value": "18.7 (0.1) °"}, {"measurement": "Hue Angle Day 5", "setting": "[1]; 250 mg/L AA", "value": "21.9 (1.2) °"}, {"measurement": "Lightness Day 0", "setting": "[1]; 250 mg/L AA", "value": "77.5 ( ).2)"}, {"measurement": "Lightness Day 5", "setting": "[1]; 250 mg/L AA", "value": "93.2 (0.3)"}, {"measurement": "ΔE Over 5 days", "setting": "[1]; 250 mg/L AA", "value": "19.3 (0.3)"}, {"measurement": "Chroma Day 0", "setting": "[1]; 500 mg/L AA", "value": "51.8 (0.0)"}, {"measurement": "Chroma Day 5", "setting": "[1]; 500 mg/L AA", "value": "10.5 (0.4)"}, {"measurement": "Hue Angle Day 0", "setting": "[1]; 500 mg/L AA", "value": "18.8 (0.0) °"}, {"measurement": "Hue Angle Day 5", "setting": "[1]; 500 mg/L AA", "value": "51.1 (2.7) °"}, {"measurement": "Lightness Day 0", "setting": "[1]; 500 mg/L AA", "value": "77.0 (0.1)"}, {"measurement": "Lightness Day 5", "setting": "[1]; 500 mg/L AA", "value": "94.4 (0.6)"}, {"measurement": "ΔE Over 5 days", "setting": "[1]; 500 mg/L AA", "value": "23.6 (0.2)"}, {"measurement": "Chroma Day 0", "setting": "[1]; 1000 mg/L AA", "value": "50.9 (0.1)"}, {"measurement": "Chroma Day 5", "setting": "[1]; 1000 mg/L AA", "value": "13.7 (1.8)"}, {"measurement": "Hue Angle Day 0", "setting": "[1]; 1000 mg/L AA", "value": "18.7 (0.1) °"}, {"measurement": "Hue Angle Day 5", "setting": "[1]; 1000 mg/L AA", "value": "77.5 (4.5) °"}, {"measurement": "Lightness Day 0", "setting": "[1]; 1000 mg/L AA", "value": "77.2 (0.3)"}, {"measurement": "Lightness Day 5", "setting": "[1]; 1000 mg/L AA", "value": "94.5 (0.7)"}, {"measurement": "ΔE Over 5 days", "setting": "[1]; 1000 mg/L AA", "value": "27.6 (0.7)"}, {"measurement": "L* after 48 hours", "setting": "[1]; 1000 mg/L AA, 48 hours", "value": 96.4}, {"measurement": "Hue Angle Day 0", "setting": "[1]; [3]", "value": 18.7, "unit": "°"}, {"measurement": "Hue Angle Day 5", "setting": "[1]; [3]", "value": 77.5, "unit": "°"}, {"measurement": "Lightness Day 0", "setting": "[1]; [3]", "value": 77.2}, {"measurement": "ΔE Over 5 days", "setting": "[1]; [3]", "value": 27.6}, {"measurement": "Chroma Day 0", "setting": "[1]; Control, no AA", "value": "51.2 (0.2)"}, {"measurement": "Chroma Day 5", "setting": "[1]; Control, no AA", "value": "46.5 (2.1)"}, {"measurement": "Hue Angle Day 0", "setting": "[1]; Control, no AA", "value": "18.6 (0.1) °"}, {"measurement": "Hue Angle Day 5", "setting": "[1]; Control, no AA", "value": "15.9 (1.0) °"}, {"measurement": "Lightness Day 5", "setting": "[1]; Control, no AA", "value": 79.4}, {"measurement": "ΔE Over 5 days", "setting": "[1]; Control, no AA", "value": "2.6 (1.1)"}, {"measurement": "Lightness Day 0", "setting": "[1]; Control, no AA, mean (SD), n=3", "value": "77.3 (0.1)"}, {"measurement": "time until significant change in chroma as compared to the control", "setting": "[1]; all levels of AA", "value": 2, "unit": "h"}, {"measurement": "initial hue angle", "setting": "[1]; day 0", "value": 16.6, "unit": "°"}, {"measurement": "target peaks left after 1 day", "setting": "[2]; 1000 mg/L AA, HPLC", "value": 2, "unit": "%"}, {"measurement": "reduction of pigment peak by day 1", "setting": "[2]; 1 g/L AA, HPLC AUC", "value": 91, "unit": "%"}, {"measurement": "reduction of pigment peak by day 5", "setting": "[2]; 1 g/L AA, HPLC AUC", "value": "> 99", "unit": "%"}]}]}
